Data published in patent publication US20230111310A1, “CARBOXYLIC ACID DERIVATIVE-SUBSTITUTED IMINO ARYL COMPOUND, PREPARATION METHOD THEREFOR, HERBICIDAL COMPOSITION AND USE THEREOF” (Qingdao Kingagroot Chemical Compound Co., Ltd., priority 2020, published 2023).

system: Setaria viridis; assay: Weeding effect in post-emergence stage; type: in vivo; conditions: Dose 15 g/ha; level of fresh weight growth control rate
Description: (§1) The activity level criteria for plant damage (i.e., growth control rate) are as follows:
(§2) Monocotyledonous and dicotyledonous weed seeds (Descurainia sophia, Capsella bursa-pastoris, Abutilon theophrasti, Galium aparine, Stellaria media, Lithospermum arvense, rorippa indica, Alopecurus aequalis, Alopecurus japonicus, Eleusine indica, Beckmannia syzigachne, Sclerochloa dura, Conyza Canadensis, Phleum paniculatum, Veronica didyma Tenore, Bromus japonicus, Aegilops tauschii, Phalaris arundinacea, Amaranthus retroflexus, Chenopodiaceae, Commelina communis, Sonchus arvensis, Convolvulus arvensis, Cirsium setosum, Bidens tripartita L., Solanum nigrum, Acalypha australis, Digitaria sanguinalis, Echinochloa crusgalli, Setaria viridis, Setaria glauca, Leptochloa chinensis, Monochoria vaginalis, Sagittaria trifolia, Scirpus juncoides, Cyperus rotundus, Cyperus iria, Cyperus difformis, Fimbristylis, Portulaca oleracea, Xanthium sibiricum, Pharbitis nil, etc.) and major crop seeds (wheat, corn, rice, soybean, cotton, oilseed rape, millet, sorghum, potato, sesame, ricinus, etc.) were placed in plastic pots filled with soil, then covered with 0.5-2 cm of soil, allowed to grow in a good greenhouse environment. After 2 weeks of sowing, the test plants were treated in the 2-3 leaf stage. The tested compounds of the present invention were respectively dissolved in acetone, then added with Tween 80 and 1.5 liter/ha of emulsifiable concentrate of methyl oleate as synergist, diluted with a certain amount of water to obtain a solution with a certain concentration, and sprayed with a spray tower onto the plants. After the application, the plants were cultured for 3 weeks in the greenhouse, and then the experimental results of the weeding were counted. […]

`COC(=O)C(C)O/N=C/c1cc(-n2c(=O)n(C)c(=S)n(C)c2=S)c(F)cc1Cl` (racemic) [Compound 124] was tested. Which “Weeding effect in post-emergence stage, Setaria viridis” value (from here on “Weeding effect … Setaria viridis”) did it give?
Its value is 5 (Level 5: growth control rate is above 85%).

With `CCOC(=O)C(C)O/N=C/c1cc(-n2c(=O)n(C)c(=S)n(C)c2=S)c(F)cc1Br` (racemic) [Compound 161] as the molecule, how does the “Weeding effect … Setaria viridis” value read?
Its value is 5 (Level 5: growth control rate is above 85%).

With `COC(=O)C(C)O/N=C/c1cc(-n2c(=O)n(C)c(=O)n(C)c2=O)c(F)cc1Cl` (racemic) [Compound 164] as the molecule, how does the “Weeding effect … Setaria viridis” value read?
Its value is 5 (Level 5: growth control rate is above 85%).

How did the “Weeding effect … Setaria viridis” value turn out when `CCSC(=O)C(C)O/N=C/c1cc(-n2c(=O)n(C)c(=S)n(C)c2=O)c(F)cc1Cl` (racemic) [Compound 168] was run?
The value was 5 (Level 5: growth control rate is above 85%).

With `COC(=O)CCNC(=O)C(C)O/N=C/c1cc(-n2c(=O)n(C)c(=S)n(C)c2=O)c(F)cc1Cl` (racemic) [Compound 183] as the molecule, how does the “Weeding effect … Setaria viridis” value read?
Its value is 5 (Level 5: growth control rate is above 85%).

Which “Weeding effect … Setaria viridis” value does the source give for `CC(O/N=C/c1cc(-n2c(=O)cc(C(F)(F)F)n(C)c2=O)c(F)cc1Cl)C(=O)O` (racemic) [Compound 193] here?
Its value is 5 (Level 5: growth control rate is above 85%).

system: Alopecurus japonicus; assay: Weeding effect in post-emergence stage; type: in vivo; conditions: Dose 15 g/ha; level of fresh weight growth control rate
Description: as §1, §2

How did the “Weeding effect in post-emergence stage, Alopecurus japonicus” value (shortened to “Weeding effect … Alopecurus japonicus”) turn out when `COC(=O)C(C)O/N=C/c1cc(-n2c(=O)n(C)c(=S)n(C)c2=S)c(F)cc1Cl` (racemic) [Compound 124] was run?
The value was 4 (Level 4: growth control rate is greater than or equal to 60% and less than 85%).

With `CCOC(=O)C(C)O/N=C/c1cc(-n2c(=O)n(C)c(=S)n(C)c2=S)c(F)cc1Br` (racemic) [Compound 161] as the molecule, how does the “Weeding effect … Alopecurus japonicus” value read?
Its value is 4 (Level 4: growth control rate is greater than or equal to 60% and less than 85%).

For `COC(=O)C(C)O/N=C/c1cc(-n2c(=O)n(C)c(=O)n(C)c2=O)c(F)cc1Cl` (racemic) [Compound 164], which “Weeding effect … Alopecurus japonicus” value is on record?
Its value is 5 (Level 5: growth control rate is above 85%).

`CCSC(=O)C(C)O/N=C/c1cc(-n2c(=O)n(C)c(=S)n(C)c2=O)c(F)cc1Cl` (racemic) [Compound 168] was tested. Which “Weeding effect … Alopecurus japonicus” value did it give?
The value was 5 (Level 5: growth control rate is above 85%).

Which “Weeding effect … Alopecurus japonicus” value does the source give for `COC(=O)CCNC(=O)C(C)O/N=C/c1cc(-n2c(=O)n(C)c(=S)n(C)c2=O)c(F)cc1Cl` (racemic) [Compound 183] here?
The value was 5 (Level 5: growth control rate is above 85%).

Which “Weeding effect … Alopecurus japonicus” value does the source give for `CC(O/N=C/c1cc(-n2c(=O)cc(C(F)(F)F)n(C)c2=O)c(F)cc1Cl)C(=O)O` (racemic) [Compound 193] here?
Its value is 5 (Level 5: growth control rate is above 85%).

system: Digitaria sanguinalis; assay: Weeding effect in post-emergence stage; type: in vivo; conditions: Dose 15 g/ha; level of fresh weight growth control rate
Description: as §1, §2

Which “Weeding effect in post-emergence stage, Digitaria sanguinalis” value (“Weeding effect … Digitaria sanguinalis” for short) does the source give for `COC(=O)C(C)O/N=C/c1cc(-n2c(=O)n(C)c(=S)n(C)c2=S)c(F)cc1Cl` (racemic) [Compound 124] here?
The value was 5 (Level 5: growth control rate is above 85%).

With `CCOC(=O)C(C)O/N=C/c1cc(-n2c(=O)n(C)c(=S)n(C)c2=S)c(F)cc1Br` (racemic) [Compound 161] as the molecule, how does the “Weeding effect … Digitaria sanguinalis” value read?
The value was 4 (Level 4: growth control rate is greater than or equal to 60% and less than 85%).

How did the “Weeding effect … Digitaria sanguinalis” value turn out when `COC(=O)C(C)O/N=C/c1cc(-n2c(=O)n(C)c(=O)n(C)c2=O)c(F)cc1Cl` (racemic) [Compound 164] was run?
The value was 5 (Level 5: growth control rate is above 85%).

Which “Weeding effect … Digitaria sanguinalis” value does the source give for `CCSC(=O)C(C)O/N=C/c1cc(-n2c(=O)n(C)c(=S)n(C)c2=O)c(F)cc1Cl` (racemic) [Compound 168] here?
Its value is 5 (Level 5: growth control rate is above 85%).

For `COC(=O)CCNC(=O)C(C)O/N=C/c1cc(-n2c(=O)n(C)c(=S)n(C)c2=O)c(F)cc1Cl` (racemic) [Compound 183], which “Weeding effect … Digitaria sanguinalis” value is on record?
The value was 5 (Level 5: growth control rate is above 85%).

For `CC(O/N=C/c1cc(-n2c(=O)cc(C(F)(F)F)n(C)c2=O)c(F)cc1Cl)C(=O)O` (racemic) [Compound 193], which “Weeding effect … Digitaria sanguinalis” value is on record?
Its value is 5 (Level 5: growth control rate is above 85%).

system: Abutilon theophrasti; assay: Weeding effect in post-emergence stage; type: in vivo; conditions: Dose 15 g/ha; level of fresh weight growth control rate
Description: as §1, §2

`COC(=O)C(C)O/N=C/c1cc(-n2c(=O)n(C)c(=S)n(C)c2=S)c(F)cc1Cl` (racemic) [Compound 124] was tested. Which “Weeding effect in post-emergence stage, Abutilon theophrasti” value (“Weeding effect … Abutilon theophrasti” for short) did it give?
The value was 5 (Level 5: growth control rate is above 85%).

Which “Weeding effect … Abutilon theophrasti” value does the source give for `CCOC(=O)C(C)O/N=C/c1cc(-n2c(=O)n(C)c(=S)n(C)c2=S)c(F)cc1Br` (racemic) [Compound 161] here?
The value was 5 (Level 5: growth control rate is above 85%).

For `COC(=O)C(C)O/N=C/c1cc(-n2c(=O)n(C)c(=O)n(C)c2=O)c(F)cc1Cl` (racemic) [Compound 164], which “Weeding effect … Abutilon theophrasti” value is on record?
Its value is 5 (Level 5: growth control rate is above 85%).

With `CCSC(=O)C(C)O/N=C/c1cc(-n2c(=O)n(C)c(=S)n(C)c2=O)c(F)cc1Cl` (racemic) [Compound 168] as the molecule, how does the “Weeding effect … Abutilon theophrasti” value read?
The value was 5 (Level 5: growth control rate is above 85%).

For `COC(=O)CCNC(=O)C(C)O/N=C/c1cc(-n2c(=O)n(C)c(=S)n(C)c2=O)c(F)cc1Cl` (racemic) [Compound 183], which “Weeding effect … Abutilon theophrasti” value is on record?
Its value is 5 (Level 5: growth control rate is above 85%).

`CC(O/N=C/c1cc(-n2c(=O)cc(C(F)(F)F)n(C)c2=O)c(F)cc1Cl)C(=O)O` (racemic) [Compound 193] was tested. Which “Weeding effect … Abutilon theophrasti” value did it give?
The value was 5 (Level 5: growth control rate is above 85%).

system: Eleusine indica; assay: Weeding effect in post-emergence stage; type: in vivo; conditions: Dose 15 g/ha; level of fresh weight growth control rate
Description: as §1, §2

`COC(=O)C(C)O/N=C/c1cc(-n2c(=O)n(C)c(=S)n(C)c2=S)c(F)cc1Cl` (racemic) [Compound 124] was tested. Which “Weeding effect in post-emergence stage, Eleusine indica” value (“Weeding effect … Eleusine indica” below) did it give?
Its value is 5 (Level 5: growth control rate is above 85%).

How did the “Weeding effect … Eleusine indica” value turn out when `CCOC(=O)C(C)O/N=C/c1cc(-n2c(=O)n(C)c(=S)n(C)c2=S)c(F)cc1Br` (racemic) [Compound 161] was run?
The value was 5 (Level 5: growth control rate is above 85%).

`COC(=O)C(C)O/N=C/c1cc(-n2c(=O)n(C)c(=O)n(C)c2=O)c(F)cc1Cl` (racemic) [Compound 164] was tested. Which “Weeding effect … Eleusine indica” value did it give?
The value was 5 (Level 5: growth control rate is above 85%).

With `CCSC(=O)C(C)O/N=C/c1cc(-n2c(=O)n(C)c(=S)n(C)c2=O)c(F)cc1Cl` (racemic) [Compound 168] as the molecule, how does the “Weeding effect … Eleusine indica” value read?
The value was 5 (Level 5: growth control rate is above 85%).

`COC(=O)CCNC(=O)C(C)O/N=C/c1cc(-n2c(=O)n(C)c(=S)n(C)c2=O)c(F)cc1Cl` (racemic) [Compound 183] was tested. Which “Weeding effect … Eleusine indica” value did it give?
Its value is 5 (Level 5: growth control rate is above 85%).

How did the “Weeding effect … Eleusine indica” value turn out when `CC(O/N=C/c1cc(-n2c(=O)cc(C(F)(F)F)n(C)c2=O)c(F)cc1Cl)C(=O)O` (racemic) [Compound 193] was run?
The value was 5 (Level 5: growth control rate is above 85%).

system: Echinochloa crusgalli; assay: Weeding effect in post-emergence stage; type: in vivo; conditions: Dose 15 g/ha; level of fresh weight growth control rate
Description: as §1
Monocotyledonous and dicotyledonous weed seeds (Descurainia sophia, Capsella bursa-pastoris, Abutilon theophrasti, Galium aparine, Stellaria media, Lithospermum arvense, rorippa indica, Alopecurus aequalis, Alopecurus japonicus, Eleusine indica, Beckmannia syzigachne, Sclerochloa dura, Conyza Canadensis, Phleum paniculatum, Veronica didyma Tenore, Bromus japonicus, Aegilops tauschii, Phalaris arundinacea, Amaranthus retroflexus, Chenopodiaceae, Commelina communis, Sonchus arvensis, Convolvulus arvensis, Cirsium setosum, Bidens tripartita L., Solanum nigrum, Acalypha australis, Digitaria sanguinalis, Echinochloa crusgalli, Setaria viridis, Setaria glauca, Leptochloa chinensis, Monochoria vaginalis, Sagittaria trifolia, Scirpus juncoides, Cyperus rotundus, Cyperus iria, Cyperus difformis, Fimbristylis, Portulaca oleracea, Xanthium sibiricum, Pharbitis nil, etc.) and major crop seeds (wheat, corn, rice, soybean, cotton, oilseed rape, millet, sorghum, potato, sesame, ricinus, etc.) were placed in plastic pots filled with soil, then covered with 0.5-2 cm of soil, allowed to grow in a good greenhouse environment. After 2 weeks of sowing, the test plants were treated in the 2-3 leaf stage. The tested compounds of the present invention were respectively dissolved in acetone, then added with Tween 80 and 1.5 liter/ha of emulsifiable concentrate of methyl oleate as synergist, diluted with a certain amount of water to obtain a solution with a certain concentration, and sprayed with a spray tower onto the plants. After the application, the plants were cultured for 3 weeks in the greenhouse, and then the experimental results of the weeding were counted. The doses of the used compounds were 500, 250, 125, 60, 30, 15, 7.5 g/ha, and the averages were obtained by repeating for three times.

Which “Weeding effect in post-emergence stage, Echinochloa crusgalli” value (from here on “Weeding effect … Echinochloa crusgalli”) does the source give for `COC(=O)C(C)O/N=C/c1cc(-n2c(=O)n(C)c(=S)n(C)c2=S)c(F)cc1Cl` (racemic) [Compound 124] here?
Its value is 5 (Level 5: growth control rate is above 85%).

For `CCOC(=O)C(C)O/N=C/c1cc(-n2c(=O)n(C)c(=S)n(C)c2=S)c(F)cc1Br` (racemic) [Compound 161], which “Weeding effect … Echinochloa crusgalli” value is on record?
Its value is 5 (Level 5: growth control rate is above 85%).

For `COC(=O)C(C)O/N=C/c1cc(-n2c(=O)n(C)c(=O)n(C)c2=O)c(F)cc1Cl` (racemic) [Compound 164], which “Weeding effect … Echinochloa crusgalli” value is on record?
The value was 5 (Level 5: growth control rate is above 85%).

For `CCSC(=O)C(C)O/N=C/c1cc(-n2c(=O)n(C)c(=S)n(C)c2=O)c(F)cc1Cl` (racemic) [Compound 168], which “Weeding effect … Echinochloa crusgalli” value is on record?
The value was 5 (Level 5: growth control rate is above 85%).

For `COC(=O)CCNC(=O)C(C)O/N=C/c1cc(-n2c(=O)n(C)c(=S)n(C)c2=O)c(F)cc1Cl` (racemic) [Compound 183], which “Weeding effect … Echinochloa crusgalli” value is on record?
The value was 5 (Level 5: growth control rate is above 85%).

How did the “Weeding effect … Echinochloa crusgalli” value turn out when `CC(O/N=C/c1cc(-n2c(=O)cc(C(F)(F)F)n(C)c2=O)c(F)cc1Cl)C(=O)O` (racemic) [Compound 193] was run?
The value was 5 (Level 5: growth control rate is above 85%).
